From patent US20110130388A1, “PROPHYLACTIC OR THERAPEUTIC AGENT FOR AXIAL MYOPIA” (priority 2008, published 2011)

Assays:
axial length extension = settings: animal experiments; cited from earlier work
progress of myopia = settings: reported in Taiwan; cited from earlier work
[1] = system: chicken model of form-deprivation myopia; assay: Axial length suppression test with chicken model of form-deprivation myopia (I), intravitreal injection; format: in vivo, chicks (white leghorn); settings: hydroxyfasudil 20 μL intravitreally once a week (about 1 μM in the eye), four weeks after induction of myopia, N = 7, * P < 0.05 vs control
Text: Chicks (white leghorn) 6 days of age were obtained, and one eye of each chick was covered with a mask hand-made of vinyl tape. The right eye of every chick was covered, and the left eye was used as a control. The chicks were kept under usual breeding conditions.
As a Rho kinase inhibitor, Y27632 dihydrochloride (made by Wako Pure Chemical Industries; see the above formula (I); hereinafter, abbreviated to “Y27632”) and hydroxyfasudil hydrochloride (made by SIGMA; see the above formula (III); hereinafter, abbreviated to “hydroxyfasudil”) were used. Y27632 was prepared at 50 μM in saline. Hydroxyfasudil was prepared at 1 mM in saline. To the control, saline was administered.
Into the vitreous chambers of the chicks to which myopia was being induced by the mask, Y27632 or hydroxyfasudil was injected once a week (every 7 days). Specifically, to the chicks under anesthesia with Ketalar (registered trademark) and Selactar (registered trademark), injection to a site about 2 mm off the corneal ring was performed with use of a syringe for insulin injection.
To the Y27632 treatment group, 50 μL of the 50 μM Y27632 solution was intravitreally injected. Since the chick eyeball volume is about 1 mL, the final concentration of Y27632 in the eye was about 2.5 μM. To a control group not treated with Y27632, 50 μL of saline was intravitreally injected.
To the hydroxyfasudil treatment group, 20 μL of a diluted hydroxyfasudil solution prepared by diluting 1 μL of the 1 mM hydroxyfasudil solution to 20 μL was intravitreally injected. Since the chick eyeball volume is about 1 mL, the final concentration of hydroxyfasudil in the eye was about 1 μM. To a control group not treated with hydroxyfasudil, 20 μL of saline was intravitreally injected.
Four weeks after the induction of myopia, the chicks were sacrificed. The eyeballs were enucleated and the right eyeball and the left eyeball were measured for the size with a caliper. The degree of axial myopia was evaluated based on the axial length and the greatest transverse diameter. The differences of the axial length and the greatest transverse diameter between the right eye and the left eye were calculated to indicate the degree of myopia. Between the groups treated with the above-mentioned drugs and the respective control groups, the degree of myopia induction was compared.

[2] = system: chicken model of form-deprivation myopia; assay: Axial length suppression test with chicken model of form-deprivation myopia (II), ophthalmic instillation; format: in vivo, chicks (white leghorn); settings: hydroxyfasudil 500 nmol/1000 μL, 1 drop (about 5 μl) instilled once daily for 4 weeks, N = 10, * P < 0.05, t-test vs control
Text: Chicken models of form-deprivation myopia were made in the same manner as in Example 1. That is, chicks (white leghorn) 6 days of age were obtained, and one eye of each chick was covered with a mask hand-made of vinyl tape. The right eye of every chick was covered, and the left eye was used as a control. The chicks were kept under usual breeding conditions.
As a Rho kinase inhibitor, hydroxyfasudil hydrochloride (made by SIGMA; see the above formula (III); hereinafter, abbreviated to “hydroxyfasudil”) was used. Hydroxyfasudil was dissolved in BSS Plus (registered trademark, made by Alcon) so that the concentration was 10 mM, and 50 μL of this solution was diluted with saline to 1000 μL. A hydroxyfasudil solution at a concentration of 500 nmol/1000 μL was thus prepared.
To chicks to which myopia was being induced by the mask, hydroxyfasudil was instilled once daily for 4 weeks. Specifically, 1 drop (about 5 μl) of the above-mentioned hydroxyfasudil solution was instilled with use of a syringe with needle for insulin subcutaneous administration, “Low Dose” 30 G (made by Becton, Dickinson and Company). The instillation was performed to the right eye and the left eye.
To the control, BSS Plus was intravitreally injected once a week (every 7 days). Specifically, the intravitreal injection was performed to a superotemporal site about 3 mm off the corneal ring avoiding cartilage tissue of the lens and sclera with use of the above-mentioned “Low Dose”. The injection to the right eye and the left eye was performed 4 times in total.
Four weeks after the induction of myopia, the chicks were sacrificed. The eyeballs were enucleated and the right eyeballs and the left eyeballs were measured for the size with a caliper. The degree of axial myopia was evaluated based on the axial length and the greatest transverse diameter. The differences of the axial length and the greatest transverse diameter between the right eye and the left eye were calculated to indicate the degree of myopia. Between the group treated with hydroxyfasudil and the control group, the degree of myopia induction was compared.

form-deprivation myopia = settings: animal experiment level; cited from earlier work
myopia = settings: 2-year clinical trial, children aged 8 to 12; cited from earlier work

For `CN1[C@@H]2CC[C@H]1C[C@@H](OC(=O)C(CO)c1ccccc1)C2` (stereo partly shown) [Atropine], the Axial length extension (axial length extension) is listed as “suppresses axial length extension” and the Progress of myopia (progress of myopia) is listed as “statistically significant inhibition of the progress of myopia”.
For `O=S(=O)(c1cccc2c(O)nccc12)N1CCCNCC1` [Hydroxyfasudil, 1-(1-hydroxy-5-isoquinolinesulfonyl)homopiperazine], the “Axial length, average right-left difference” value [1] was 0.37* mm, the “Greatest transverse diameter, average right-left difference” value [1] was 0.48* mm and the “Axial length, average right-left difference” value ([1]; listed as hydroxyfasudil) was “significantly reduced”. For the same compound, the “Greatest transverse diameter, average right-left difference” value ([1]; listed as hydroxyfasudil) was “significantly reduced”, the “Axial length, average right-left difference” value [2] was 0.61* mm and the “Greatest transverse diameter, average right-left difference” value [2] was 0.91* mm. For the same compound, the “Axial length, average right-left difference” value ([2]; listed as hydroxyfasudil) was “significantly reduced” and the “Greatest transverse diameter, average right-left difference” value ([2]; listed as hydroxyfasudil) was “significantly reduced”.
For `CN1CCN(CC(=O)N2c3ccccc3C(=O)Nc3cccnc32)CC1` [Pirenzepine], the “Form-deprivation myopia (axial length extension)” value (form-deprivation myopia) is given as “prevented form-deprivation myopia”, the “Accommodative myopia (refraction of the lens)” value (myopia) is given as “significant difference” and the Axial length (myopia) is given as “no significant difference”.
